Data published in patent US5763406A, “Method for the treatment of conditions caused by herpes virus infections” (Carlbiotech, Ltd. A/S, priority 1991, dated 1998).

Experiments:
[1] = Systemic or local effects reported by treated patients; assay type: in vivo, human
HSV-1 infection = assay: Patients' earlier aciclovir treatment of HSV-1 outbreaks (case history); assay type: in vivo, human
Protocol: The patient had experienced similar lesions during the past 18 years, primarily during the winter months. They would usually experience 3-5 outbreaks each winter lasting 10-14 days before complete resolution. One year ago, they applied aciclovir topical to the lesions and on that occasion, resolution occured in 6-8 days.
When the lesions are treated with a 5% aciclovir ointment, topically, resolution is normally achieved within 6-7 days. […] On this occasion, […] denied any recent use of any topical or systemic therapy.
The patient had experienced outbreaks from HSV-1 […]. Five years ago the patient started to use aciclovir topically on a regular basis, but switched to take aciclovir orally 11/2 years ago. Normally the outbreaks would be on the lips, but occasionally the outbreaks would also appear on the neck and on the buccal mucosa. Without any form of medication, complete resolution would happen within 2-3 weeks and complete resolution by using aciclovir orally would happen within 1-2 weeks.

## C[C@@H](N)C(=O)N[C@@H](CO)C(=O)N[C@H](C(=O)N[C@H](C(=O)N[C@H](C(=O)N[C@@H](CC(N)=O)C(=O)N[C@@H](Cc1ccc(O)cc1)C(=O)N[C@H](C(N)=O)[C@@H](C)O)[C@@H](C)O)[C@@H](C)O)[C@@H](C)O [(D-Ala^1)-Peptide-T Amide, D-Ala-Ser-Thr-Thr-Thr-Asn-Tyr-Thr-NH2]
[1]; Example 1, 10 mg/ml topical three times daily
  systemic or local effects: did not report any systemic or local effects other than those noted above
[1]; Example 4, 10 mg/ml topical four times in 36 hours
  systemic or local effects: did not experience any systemic or local effects other than those noted above
[1]; Example 5, 10 mg/ml topical two times daily
  systemic or local effects: did not observe any systemic or local effects other than those noted above

## Nc1nc2c(ncn2COCCO)c(=O)[nH]1 [aciclovir]
HSV-1 infection; Example 1 patient, aciclovir topical one year ago
  time to resolution: 6 to 8 days
HSV-1 infection; Example 2 patient, 5% aciclovir ointment, topically
  time to resolution: 6 to 7 days
HSV-1 infection; Example 2 patient, aciclovir
  effect of very early treatment of the lesions: has not been able to stop the vesicles developing into painful ulcers although the ulcers tend to decrease in size
HSV-1 infection; Example 4 patient
  effect from the use of aciclovir: never experienced any effect
HSV-1 infection; Example 5 patient, aciclovir orally
  time to complete resolution: 1-2 weeks
